According to article PMC2630366 (The Journal of pharmacology and experimental therapeutics, 2008):
Like-named read-outs stand apart in the source and are kept apart here. Where no end group is shown, it is not given here.

What was measured:
native hPAR2 = biological target: T1, native hPAR2 (Homo sapiens, UniProt P55085); experiment: Selectivity: calcium mobilization, native hPAR2 in A549 cells; type: cell-based
T1 sequence (P55085 26-397): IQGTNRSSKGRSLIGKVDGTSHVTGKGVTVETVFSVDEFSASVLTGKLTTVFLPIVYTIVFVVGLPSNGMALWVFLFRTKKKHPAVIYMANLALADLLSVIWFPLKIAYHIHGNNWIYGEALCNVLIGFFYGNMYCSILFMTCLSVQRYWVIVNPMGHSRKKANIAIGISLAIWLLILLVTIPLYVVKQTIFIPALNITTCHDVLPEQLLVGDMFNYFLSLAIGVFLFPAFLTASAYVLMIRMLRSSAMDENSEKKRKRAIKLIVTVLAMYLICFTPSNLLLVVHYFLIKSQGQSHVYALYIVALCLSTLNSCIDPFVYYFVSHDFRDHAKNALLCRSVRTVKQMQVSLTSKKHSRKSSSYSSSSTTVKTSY

NPSR^-/- mice = experiment: Mouse righting reflex recovery test, NPSR^-/- mice; type: in vivo; details: diazepam 15 mg/kg i.p.
NPSR^+/+ mice = experiment: Mouse righting reflex recovery test, NPSR^+/+ mice; type: in vivo; details: diazepam 15 mg/kg i.p.
Swiss mice = experiment: Mouse righting reflex recovery test, Swiss mice; type: in vivo; details: diazepam 15 mg/kg i.p., 16 mice per group
mice [1] = details: administered into the amygdala in mice; ref Jungling et al., 2008; cited from earlier work
mice [2] = details: 50 mgs/kg, ref Okamura et al., 2008; cited from earlier work
[3] = ref Okamura et al., 2008; cited from earlier work

SLIGKV-NH2 [SLIGKV-NH2]
EC50 (native hPAR2): 21.9 µM
Emax (native hPAR2; A549, read-out: Emax, control): 449 ± 25%
Emax (native hPAR2; A549, read-out: Emax, in presence of [D-Cys(tBu)^5]NPS 10 μM): 433 ± 37%

CN1C(=O)CN=C(c2ccccc2)c2cc(Cl)ccc21 [diazepam]
percent of animals losing the righting reflex (NPSR^-/- mice; 10-12 mice per group): 100%
sleeping time (time to regain the RR) (NPSR^-/- mice; mean ± sem of 10-12 mice): 211 ± 19 min
percent of animals losing the righting reflex (NPSR^+/+ mice; 10-12 mice per group): 100%
sleeping time (time to regain the RR) (NPSR^+/+ mice; mean ± sem of 10-12 mice): 180 ± 18 min
percent of animals losing the righting reflex (Swiss mice): 92%

O=C(NCc1ccc(F)cc1)N1CCN2C(=O)OC(c3ccccc3)(c3ccccc3)C2C1 (centres unmarked) [SHA 68, 3-oxo-1,1-diphenyl-tetrahydro-oxazolo[3,4-a]pyrazine-7-carboxylic acid 4-fluoro-benzylamide]
effect on anxiety and extinction of conditioned fear responses (mice [1]): exerts functionally opposing responses
effect on NPS-stimulated locomotion (mice [2]): able to partially counteract the stimulatory effects of NPS on locomotion
blood brain barrier penetration [3]: limited blood brain barrier penetration
